Assay results from patent US10246448B2, “4-hydroxy-2-phenyl-1,3-thiazol-5-yl methanone derivatives as TRPM8 antagonists” (DOMPÉ FARMACEUTICI S.P.A., priority 2015, dated 2019).

Tests used:
[1] = Metabolic stability in rat microsomes, Phase I assay; format: in vitro ADME; conditions: for intrinsic clearance half-life (in words): metabolic stability in rat microsomes; for half-life at 1 μM: pH 7.4, rat liver microsomes 0.5 mg/ml, compound 1 μM, NADP cofactors mixture, 37° C., read-out: Metabolic Stability (t1/2, min) Phase1
Protocol: Compounds 1, 2, 8 and 9 in duplicate were dissolved in DMSO and pre-incubated, at the final concentration of 1 μM, for 10 min at 37° C. in potassium phosphate buffer 50 mM pH 7.4, 3 mM MgCl2, with rat liver microsomes (Xenotech) at the final concentration of 0.5 mg/ml.
After the pre-incubation period, reactions were started by adding the cofactors mixture (NADP, Glc6P, Glc6P-DH in 2% Sodium bicarbonte); samples (50 μl) were taken at time 0, 10, 20, 30 and 60 min added to 150 μl of acetonitrile with Verapamil 0.02 μM as Internal Standard (IS) to stop the reaction. After centrifugation the supernatants were analysed by LC-MS/MS.
A control sample without cofactors was added in order to check the stability of test compounds in the matrix after 60 min. 7-Ethoxycoumarin and propranolol were added as reference standards.

[2] = Metabolic stability in rat microsomes, Phase II assay; format: in vitro ADME; conditions: pH 7.4; rat liver microsomes 0.5 mg/mL, Alamethicin activated, UDPGA, compound 1 μM, 37° C.; read-out: Metabolic Stability (t1/2, min) Phase2
Protocol: Rat liver microsomes (0.5 mg/mL final conc.) were incubated in ice for 15 min in 50 mM potassium phosphate buffer pH 7.4, 3 mM MgCl2 and activated with Alamethicin 50 μg/mg microsomal protein. Samples were transferred at 37° C. and compounds 1, 2, 8 and 9, dissolved in DMSO, were added in duplicate at the final concentration of 1 μM. After 5 min, reaction is started by adding 25 μl of UDPGA (16.15 mg/ml in 0.2% Sodium Bicarbonate). Samples were taken at time 0, 10, 20, 30 and 60 min added to 150 μl of acetonitrile with Verapamil 0.02 uM as Internal Standard (IS) to stop the reaction. After centrifugation the supernatants were analysed by LC-MS/MS. 7-Hydroxycoumarin was added as reference standard.

human TRPM8 [3] = target: T1, human TRPM8 (Homo sapiens, UniProt Q7Z2W7); assay: In vitro TRPM8 assay: intracellular calcium levels, Ca2+ sensitive fluorescent dye (FLIPR), agonist Icilin or Cooling Agent 10; format: cell-based; set-up: expressed in transfected cells; conditions: HEK-293 cells stably expressing human TRPM8
Protocol: The TRPM8 antagonistic activity of all 26 compounds was determined by measuring changes in intracellular calcium levels using a Ca^+2 sensitive fluorescent dye. The experiments were performed using HEK-293 cells stably expressing the human TRPM8. Cells were seeded 10000 cells/well in 384 plates coated by Poly-D-Lysine MATRIX black/clear bottom (Thermo Scientific, Waltham, Mass. USA) in complete medium and grown overnight at 37° C., 5% CO2. 24 h after seeding, cell culture media was removed, cells were washed with Tyrode's assay buffer and then loaded with the fluorescent Ca^+2 indicator Fluo-4 NW dye (Molecular Probes, Life Technologies, Paisley, UK) supplemented with water-soluble Probenecid (Molecular Probes). Dye loaded cell plates were incubated for 1 h at room temperature. The compounds or vehicle were added and the kinetic response was monitored by a fluorimetric imaging plate ([…]; Molecular Devices, Sunnyvale, Calif., USA) over a period of five minutes (300 seconds). A second injection 5 minutes later of the reference agonist Cooling Agent 10 or Icilin at EC80 concentration was performed. The signal of the emitted fluorescence was recorded during additional three minutes. Data were analyzed by Spotfire DecisionSite version 9.1.1. The bioactivity exerted by the compounds or vehicle was expressed as a percent inhibition and IC50 values were then calculated.

human TRPM8 [4] = target: T1, human TRPM8; assay: In vitro cold stimulation assay
Protocol: The TRPM8 antagonisticic activity of all 26 compounds was determined in an in vitro cold stimulation assay.
3-4 days after seeding (˜80% confluent cells), the medium was removed and cells were loaded by a solution of Screen Quest™ Fluo-8 NW dye (ABS Bioquest, Sunnyvale, Calif., USA) in the dark. Dye-loaded cell flasks were incubated for 45 minutes at room temperature in the dark and the Fluo-8 NW solution was then removed and cells were seeded in the 96 Assay Plates (MicroAmp™ Optical 96-Well Reaction Plates; Applied Biosystems, Life technologies) at 100,000 cells/'well (20 μl/well). […] All data point determinations were performed in duplicate before a mean value was calculated, including error bars representing the standard error of the mean.

[5] = agonist Cooling Agent 10 at EC80, read-out: Ca2+ (IC50 μM) Cool 10
[6] = agonist Icilin at EC80, read-out: Ca2+ (IC50 μM) Icilin

T1 sequence (Q7Z2W7 whole entry): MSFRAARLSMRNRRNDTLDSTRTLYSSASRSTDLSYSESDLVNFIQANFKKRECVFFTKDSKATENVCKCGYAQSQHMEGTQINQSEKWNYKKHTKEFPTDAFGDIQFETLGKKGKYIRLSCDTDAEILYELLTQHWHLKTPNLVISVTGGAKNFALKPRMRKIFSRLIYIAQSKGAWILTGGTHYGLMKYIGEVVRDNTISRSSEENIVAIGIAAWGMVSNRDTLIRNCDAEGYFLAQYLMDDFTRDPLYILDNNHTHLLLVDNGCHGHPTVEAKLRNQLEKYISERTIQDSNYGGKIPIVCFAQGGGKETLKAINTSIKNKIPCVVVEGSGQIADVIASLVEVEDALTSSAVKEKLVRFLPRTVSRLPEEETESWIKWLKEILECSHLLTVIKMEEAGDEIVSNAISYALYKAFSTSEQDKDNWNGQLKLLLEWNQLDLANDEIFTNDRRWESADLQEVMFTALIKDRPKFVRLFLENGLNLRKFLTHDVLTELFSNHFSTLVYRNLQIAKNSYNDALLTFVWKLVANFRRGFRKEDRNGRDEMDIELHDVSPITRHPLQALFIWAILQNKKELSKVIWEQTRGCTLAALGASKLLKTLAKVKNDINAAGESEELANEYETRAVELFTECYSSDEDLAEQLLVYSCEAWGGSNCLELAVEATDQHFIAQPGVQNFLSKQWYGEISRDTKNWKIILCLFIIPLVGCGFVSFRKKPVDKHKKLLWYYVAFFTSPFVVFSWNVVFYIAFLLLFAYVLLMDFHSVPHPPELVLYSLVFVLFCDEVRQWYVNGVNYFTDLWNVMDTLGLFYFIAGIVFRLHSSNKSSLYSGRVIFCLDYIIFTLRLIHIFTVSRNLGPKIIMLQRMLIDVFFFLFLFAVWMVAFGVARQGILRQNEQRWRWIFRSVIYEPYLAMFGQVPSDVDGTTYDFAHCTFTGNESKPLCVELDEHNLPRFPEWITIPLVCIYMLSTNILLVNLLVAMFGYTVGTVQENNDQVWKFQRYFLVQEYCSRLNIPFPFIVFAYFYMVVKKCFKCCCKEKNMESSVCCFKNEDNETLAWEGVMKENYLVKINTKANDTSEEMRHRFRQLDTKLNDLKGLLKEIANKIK

| Structure (SMILES) | intrinsic clearance half-life (in words) [1] | half-life at 1 μM [1] [min] | half-life at 1 μM [2] [min] | IC50 (human TRPM8 [3]; [5]) [µM] | IC50 (human TRPM8 [3]; [6]) [µM] | IC50 (human TRPM8 [4]) [nM] |
| --- | --- | --- | --- | --- | --- | --- |
| O=C(c1sc(-c2cccc(F)c2)nc1O)N1CCCO1 [Example 1, [2-(3-fluorophenyl)-4-hydroxy-1,3-thiazol-5-yl](1,2-oxazolidin-2-yl)methanone] | highest intrinsic clearance half-life | 185 | 120 | – | – | – |
| O=C(c1sc(-c2ccccc2O)nc1O)N1CCCO1 [Example 2, [4-hydroxy-2-(2-hydroxyphenyl)-1,3-thiazol-5-yl](1,2-oxazolidin-2-yl)methanone] | highest intrinsic clearance half-life | 97 | 86 | 0.011 | 0.012 | 5.5 |
| O=C(c1sc(-c2cccc(F)c2)nc1O)N1CCOC1 [Example 3, [2-(3-fluorophenyl)-4-hydroxy-1,3-thiazol-5-yl](1,3-oxazolidin-3-yl)methanone] | – | 78 | 55 | – | – | – |
| O=C(c1sc(-c2ccccc2O)nc1O)N1CCOC1 [Example 4, [4-hydroxy-2-(2-hydroxyphenyl)-1,3-thiazol-5-yl](1,3-oxazolidin-3-yl)methanone] | – | 64 | 41 | 0.104 | 0.122 | 39 |
| O=C(c1sc(-c2cccc(F)c2)nc1O)C1CCCO1 (centres unmarked) [Example 5, [2-(3-fluorophenyl)-4-hydroxy-1,3-thiazol-5-yl](oxolan-2-yl)methanone] | – | 52 | 45 | 0.326 | 0.362 | 124 |
| O=C(c1sc(-c2ccccc2O)nc1O)C1CCCO1 (centres unmarked) [Example 6, [4-hydroxy-2-(2-hydroxyphenyl)-1,3-thiazol-5-yl](oxolan-2-yl)methanone] | – | 56 | 33 | 0.401 | 0.452 | 230 |
| O=C(c1sc(-c2cccc(F)c2)nc1O)N1CCCC1 [Example 7, [2-(3-fluorophenyl)-4-hydroxy-1,3-thiazol-5-yl](pyrrolidin-1-yl)methanone] | – | 46 | 51 | 1.36 | 1.56 | 1230 |
| O=C(c1sc(-c2ccccc2O)nc1O)N1CCCCO1 [Example 8, [4-hydroxy-2-(2-hydroxyphenyl)-1,3-thiazol-5-yl](1,2-oxazinan-2-yl)methanone] | highest intrinsic clearance half-life | 102 | 43 | – | – | – |
| O=C(c1sc(-c2cccc(F)c2)nc1O)N1CCCCO1 [Example 9, [2-(3-fluorophenyl)-4-hydroxy-1,3-thiazol-5-yl](1,2-oxazinan-2-yl)methanone] | highest intrinsic clearance half-life | 98 | 51 | 0.167 | 0.123 | 8 |
| O=C(c1sc(-c2cccc(F)c2)nc1O)N1CCCOC1 [Example 10, [2-(3-fluorophenyl)-4-hydroxy-1,3-thiazol-5-yl](1,3-oxazinan-3-yl)methanone] | – | 55 | 46 | 0.256 | 0.231 | 102 |
| O=C(c1sc(-c2ccccc2O)nc1O)N1CCCOC1 [Example 11, [4-hydroxy-2-(2-hydroxyphenyl)-1,3-thiazol-5-yl](1,3-oxazinan-3-yl)methanone] | – | 51 | 50 | 0.281 | 0.256 | 106 |
| O=C(c1sc(-c2cccc(F)c2)nc1O)N1CCOCC1 [Example 12, [2-(3-fluorophenyl)-4-hydroxy-1,3-thiazol-5-yl](morpholin-4-yl)methanone] | – | 54 | 32 | 0.963 | 1.21 | 853 |
| O=C(c1sc(-c2ccccc2O)nc1O)N1CCOCC1 [Example 13, [4-hydroxy-2-(2-hydroxyphenyl)-1,3-thiazol-5-yl](morpholin-4-yl)methanone] | – | 78 | 36 | 1.12 | 1.22 | 752 |
| O=C(c1sc(-c2cccc(F)c2)nc1O)N1CCCCC1 [Example 14, [2-(3-fluorophenyl)-4-hydroxy-1,3-thiazol-5-yl](piperidin-1-yl)methanone] | – | 67 | 65 | 1.51 | 1.47 | 985 |
| O=C(c1sc(-c2cccc(F)c2)nc1O)C1CCCN1 (centres unmarked) [Example 15, [2-(3-fluorophenyl)-4-hydroxy-1,3-thiazol-5-yl](pyrrolidin-2-yl)methanone] | – | 65 | 54 | 1.56 | 1.23 | 1310 |
| CN1CCCC1C(=O)c1sc(-c2cccc(F)c2)nc1O (centres unmarked) [Example 16, [2-(3-fluorophenyl)-4-hydroxy-1,3-thiazol-5-yl](1-methylpyrrolidin-2-yl)methanone] | – | 32 | 34 | 1.34 | 1.36 | 1010 |
| O=C(c1ccc[nH]1)c1sc(-c2cccc(F)c2)nc1O [Example 17, [2-(3-fluorophenyl)-4-hydroxy-1,3-thiazol-5-yl](1H-pyrrol-2-yl)methanone] | – | 90 | 82 | 0.482 | 0.564 | 124 |
| Cn1cccc1C(=O)c1sc(-c2cccc(F)c2)nc1O [Example 18, [2-(3-fluorophenyl)-4-hydroxy-1,3-thiazol-5-yl](1-methyl-1H-pyrrol-2-yl)methanone] | – | 78 | 55 | 1.08 | 1.09 | 1450 |
| O=C(c1ccco1)c1sc(-c2cccc(F)c2)nc1O [Example 19, [2-(3-fluorophenyl)-4-hydroxy-1,3-thiazol-5-yl](furan-2-yl)methanone] | – | 42 | 21 | 1.17 | 1.15 | 1780 |
| O=C(c1cccs1)c1sc(-c2cccc(F)c2)nc1O [Example 20, [2-(3-fluorophenyl)-4-hydroxy-1,3-thiazol-5-yl](thiophen-2-yl)methanone] | – | 68 | 59 | 0.96 | 1.11 | 1380 |
| O=C(c1sc(-c2cccc(F)c2)nc1O)n1cccc1 [Example 21, [2-(3-fluorophenyl)-4-hydroxy-1,3-thiazol-5-yl](1H-pyrrol-1-yl)methanone] | – | 32 | 35 | 0.651 | 0.745 | 657 |
| O=C(c1ccccn1)c1sc(-c2cccc(F)c2)nc1O [Example 22, [2-(3-fluorophenyl)-4-hydroxy-1,3-thiazol-5-yl](pyridin-2-yl)methanone] | – | 52 | 55 | 0.523 | 0.54 | 478 |
| O=C(c1cccnc1)c1sc(-c2cccc(F)c2)nc1O [Example 23, [2-(3-fluorophenyl)-4-hydroxy-1,3-thiazol-5-yl](pyridin-3-yl)methanone] | – | 52 | 51 | 0.621 | 0.695 | 578 |
